Laboratory results published in patent publication US20250179126A1, “A NOVEL PEPTIDE FROM A PHOTOSYNTHETIC BACERIUM DIRECTLY TARGETS MITOCHONDRIA TO TRIGGER APOPTOSIS IN ADVANCED PROSTATE CANCER CELLS” (priority 2022, published 2025).
Entries after “also recorded” stand apart in the source; their conditions may differ.

Key:
[1] = tested on: MCF-7 breast cancer cells; test: MTT cell viability assay, MCF-7 breast cancer cells; type: cell-based, human; details: MCF-7, 5-100 μM, 24 hr
Excerpt: Cell viability was detected by MTT assays, and the control (PBS-treated) cells were considered 100% viable. Mean±SE (N=3). *P<0.05, **P<0.01, ***P<0.001.
Cell lines and culture: Human cancer and noncancer (immortalized and nonimmortalized) cell lines were obtained from the American Type Culture Collection [prostate cancer (PC3, DU145 and LNCaP), normal prostate (CRL11611), breast cancer (MCF-7), ovarian cancer (SK-OV3 adenocarcinoma), lung cancer (A549)]. MDD2 breast cancer cells (p53 dominant-negative) were provided courtesy of Dr Andrei V. Gudkov, Roswell Park Cancer Institute. 20 All cell lines were cultured in MEM-E (Invitrogen) supplemented with 10% heat-inactivated fetal bovine serum (Atlanta Biological, Inc.), 100 units/mL penicillin, and 100 μg/mL streptomycin at 37° C. in 5% CO2.
Cytotoxicity assay: The MTT assay was performed as we previously described (Cha et al., Cancer Research 2020, 80: 1615-1623).

PC3 cells = test: Cellular membrane toxicity, LDH leakage assay; type: cell-based, human; details: PC3, 0.2-200 μM, 37° C.
Experimental: FIG. 6A-6B: Cellular membrane toxicity assays. […] Cells treated with lysis buffer were defined as having 100% LDH release. Mean±SE (N=3).
Cellular membrane toxicity: LDH assays were performed as we previously described (Cha et al., Cancer Research 2020, 80: 1615-1623).

[2] = target: T1, mitochondrial ATP synthase gamma subunit (ATP5C) (Homo sapiens, UniProt P36542); test: Pull-down assay with biotin-labeled peptides and protein identification; type: binding; details: mitochondrial fraction of PC3 cells, biotin-labeled peptide, 16 hr at 4° C.
T1 construct: endogenous in cells; host or cells: PC3 human prostate cancer cells, mitochondrial fraction (detergent extract)
T1 sequence (P36542 26-298): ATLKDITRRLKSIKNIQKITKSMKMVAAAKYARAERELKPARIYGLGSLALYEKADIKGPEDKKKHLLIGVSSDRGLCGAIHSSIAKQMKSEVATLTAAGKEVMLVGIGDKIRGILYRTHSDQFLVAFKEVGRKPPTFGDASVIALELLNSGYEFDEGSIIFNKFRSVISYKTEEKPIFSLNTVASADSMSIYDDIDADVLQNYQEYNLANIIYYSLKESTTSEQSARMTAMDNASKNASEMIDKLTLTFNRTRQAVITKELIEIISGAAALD
Excerpt: 8A, TEM image of PC3 cells. Representative TEM micrograph of aurB-treated cells depicting the intraritochondrial localization of aurB-GNRs (arrowheads) and mitochondria](Mt) swelling. Scale bar: 600 nm. Mt: mitochondria. […] Coomassie-stained SDS-PAGE gels are shown (8B). The protein band at ˜35 kDa (arrowhead) was identified as ATP5C using mass spectrometry analysis. The identified fragments are indicated in green underlined sequence (SEQ ID NO: 4)(8C).
Pull-down assay and protein identification: PC3 cells were washed twice with PBS, and the mitochondrial fraction was prepared with a Qproteome mitochondria isolation kit (Qiagen). […] The peptides were then preincubated with streptavidin-agarose beads for 4 hr. After washing, the beads were boiled, and the released proteins were subjected to SDS-PAGE analysis. A protein band of ˜35 kDa was subjected to microcapillary LC/MS/MS for protein identification (Harvard Medical School, Taplin Mass Spectrometry Facility). For IB, proteins were transferred to nitrocellulose membranes. After blocking with 5% BSA in TBST, the membranes were incubated with anti-ATP5C antibody at 1:25,000 in 5% BSA/TBST (Abcam) for 16 hr at 4° C. The secondary antibody was applied (anti-goat IgG-HRP; Santa Cruz Biotechnology). The signal was detected using enhanced chemiluminescence (ECL).

[3] = tested on: spontaneous mammary tumors; type: in vivo, MMTV-PyMT transgenic mice
Excerpt: FIG. 26A-26H: Azurin-producing P. aeruginosa in human tumors. The azurin-encoding gene (azu) was detected in tumors from patients with breast cancer and melanoma. It was amplified by PCR with P. aeruginosa azu-specific primers and confirmed by DNA sequencing. […] In melanoma (26A), 27.6% (8 of 29) of primary tumors and 5.9% (2 of 34) of metastatic tumors were azu positive (P<0.05). In breast cancer (26B), 22.7% (5 of 22) of primary tumors and 14.3% (2 of 14) of metastatic tumors were azu positive (P>0.05). In addition, frozen tumor samples were processed for immunogold transmission electron microscopy (TEM) by using anti-P. aeruginosa and anti-azurin antibodies. […] Magnification: ×3000. […] Survival analysis of patients with azu-positive vs. azu-negative primary melanoma (26E, P<0.01) and primary breast cancer (26F, P<0.05) tumors. 26G—Hemizvgous MMTV-PyMT transgenic mice were injected with either PBS control or 2.5 mg/kg azurin (intraperitoneally, 3× weekly) for 2 months. The mean+SE values of tumor volume were calculated. h Tumor-free survival curve was generated with the PBS control and 2.5 mg/kg azurin groups of MMTV-PyMT transgenic mice. Median tumor-free survival of the PBS control and azurin-treatment groups was 67 and 72 days, respectively. P=0.015
FIG. 29A-29C: Effect of azurin from P. aeruginosa in a transgenic animal model. 29A. Near-infrared red (NIR) dye-conjugated azurin or PBS was injected i.v. into transgenic mice that spontaneously develop mammary tumors. Twenty-four hours after azurin injection, mice were imaged with a photodynamic eye (PDE) system (left: photographic image, right: NIR fluorescence image at 800 nm). 29B. At the end of the study, the tumors were resected.
Effect of azurin on transgenic mice: Hemizygous MMTV-PyMT (mouse mammary tumor virus-polyoma middle tumor-antigen) female mice were obtained from The Jackson Laboratory. […] In order to reach this level of azurin in mouse (25 g-body weight, 2 ml total blood volume), azurin does at 2.5 mg/kg was determined. Tumor volume and body weights were determined three times weekly. […]

Row | Substance | anti-proliferative effect (MTT cell viability) [1] | cellular membrane toxicity (LDH release) (PC3 cells) | binding to ATP5C (pull-down of ~35 kDa protein, IB) [2] | tumor-free survival ([3]; 2.5 mg/kg azurin i.p. 3× weekly) | tumor growth (tumor volume) ([3]; 2.5 mg/kg azurin i.p. 3× weekly, 2 months) | Median tumor-free survival ([3]; 2.5 mg/kg azurin intraperitoneally, 3× weekly)
1 | LVN GGD DVA AAV NTA AQN NAD ALF VPPP (LVNGGDDVAAAVNTAAQNNADALFVPPP) [aurB] | clear dose-dependent effects | Neither aurA nor aurB induced cellular membrane toxicity at any concentrations | physically bound to ATP5C; also recorded: pulled down an endogenous protein |  |  | 
2 | azurin: 14 kDa periplasmic copper protein of 128 amino acids from P. aeruginosa; purified recombinant |  |  |  | significantly extended | significantly inhibited | 72 days
